Laboratory results taken from ChEMBL document CHEMBL5705899 (Biochem J, 2014).
Activity calls are given as the source filed them. The calls are words filed in the database; no cut-off is given here.

Experiments:
[1] = molecular target: Serine/threonine-protein kinase BRSK2 (Homo sapiens) (UniProt Q8IWQ3); experiment: Inhibition of recombinant human N-terminal His6-tagged BRSK2 (2 to 674 residues) expressed in baculovirus infected Sf21 cells assessed as remaining activity at 1 uM using KKLNRTLSFAEPG as substrate incubated for 30 mins in presence of [gamma-33P]ATP by filter binding method relative to control
[2] = molecular target: Protein kinase C gamma type (Homo sapiens) (UniProt P05129); experiment: Inhibition of recombinant human N-terminal GST-tagged PKCgamma (1 to 697 residues) expressed in baculovirus infected Sf21 cells assessed as remaining activity at 1 uM using Histone H1 as substrate incubated for 30 mins in presence of [gamma-33P]ATP by filter binding method relative to control
[3] = molecular target: Serine/threonine-protein kinase Nek6 (Homo sapiens) (UniProt Q9HC98); experiment: Inhibition of recombinant human His6-tagged NEK6 (8 to 313 residues) expressed in baculovirus infected Sf21 cells assessed as remaining activity at 1 uM using FLAKSFGSPNRAYKK as substrate incubated for 30 mins in presence of [gamma-33P]ATP by filter binding method relative to control
[4] = molecular target: Tyrosine-protein kinase Srms (Homo sapiens) (UniProt Q9H3Y6); experiment: Inhibition of human SRMS at 1 uM using PolyEY as substrate in presence of 33P-ATP by ProQinase assay
[5] = molecular target: Serine/threonine-protein kinase Sgk3 (Homo sapiens) (UniProt Q96BR1); experiment: Inhibition of human SGK3 at 1 uM using RBER-GSK3 as substrate in presence of 33P-ATP by ProQinase assay
[6] = molecular target: Angiopoietin-1 receptor (Homo sapiens) (UniProt Q02763); experiment: Inhibition of recombinant human N-terminal His6-tagged TIE2 (771 to 1124 residues) expressed in baculovirus infected Sf21 cells assessed as remaining activity at 1 uM using Poly(Glu,Tyr) as substrate incubated for 30 mins in presence of [gamma-33P]ATP by filter binding method relative to control
[7] = molecular target: Protein kinase C delta type (Homo sapiens) (UniProt Q05655); experiment: Inhibition of human PKCdelta at 1 uM using 3xChocktide-PKC as substrate in presence of 33P-ATP by ProQinase assay
[8] = molecular target: PI3-kinase p110-alpha/p85-alpha (Homo sapiens, UniProt P42336); experiment: Inhibition of human PIK3CA/PIK3R1 using PIP2/PS as substrate by ADP-Glo assay; type: protein-complex assay
[9] = molecular target: Mitogen-activated protein kinase 8 (Homo sapiens) (UniProt P45983); experiment: Inhibition of recombinant human His6-tagged JNK1 (1 to 384 residues) expressed in baculovirus infected Sf21 cells assessed as remaining activity at 1 uM using ATF2 as substrate incubated for 30 mins in presence of [gamma-33P]ATP by filter binding method relative to control
[10] = molecular target: Leucine-rich repeat serine/threonine-protein kinase 2 (Homo sapiens) (UniProt Q5S007); experiment: Inhibition of human LRRK2 at 1 uM using RBER-GSK3 as substrate in presence of 33P-ATP by ProQinase assay
[11] = molecular target: CDK9/cyclin T1 (Homo sapiens) (UniProt O60563+P50750); experiment: Inhibition of human CDK9/CyclinT1 at 1 uM using RBER-CHKtide as substrate in presence of 33P-ATP by ProQinase assay; type: protein-complex assay
[12] = molecular target: Mitogen-activated protein kinase 12 (Homo sapiens) (UniProt P53778); experiment: Inhibition of human P38gamma at 1 uM using RBER-IRStide as substrate in presence of 33P-ATP by ProQinase assay
[13] = molecular target: Insulin receptor-related protein (Homo sapiens) (UniProt P14616); experiment: Inhibition of recombinant human N-terminal His6-tagged IRR (944 to 1236 residues) expressed in baculovirus infected Sf21 cells assessed as remaining activity at 1 uM using MBP as substrate incubated for 30 mins in presence of [gamma-33P]ATP by filter binding method relative to control
[14] = molecular target: Tyrosine-protein kinase ABL1 (Homo sapiens) (UniProt P00519); experiment: Inhibition of recombinant human N-terminal GST-tagged ABL (118 to 535 residues) expressed in Escherichia coli co-expressed with His-tagged YopH assessed as remaining activity at 1 uM using EAIYAAPFAKKK as substrate incubated for 30 mins in presence of [gamma-33P]ATP by filter binding method relative to control
[15] = molecular target: Activin receptor type-1B (Homo sapiens) (UniProt P36896); experiment: Inhibition of human ACVR1B at 1 uM using RBER-CHKtide as substrate in presence of 33P-ATP by ProQinase assay
[16] = species: Homo sapiens; experiment: Inhibition of recombinant human MKK1 (2 to 393 residues) expressed in Escherichia coli assessed as remaining activity at 1 uM using MBP as substrate incubated for 30 mins in presence of [gamma-33P]ATP by filter binding method relative to control
[17] = molecular target: Tau-tubulin kinase 1 (Homo sapiens) (UniProt Q5TCY1); experiment: Inhibition of recombinant human N-terminal GST-tagged TTBK1 (1 to 1321 residues) expressed in Escherichia coli assessed as remaining activity at 1 uM using RRKDLHDDEEDEAMSITA as substrate incubated for 30 mins in presence of [gamma-33P]ATP by filter binding method relative to control
[18] = molecular target: Mast/stem cell growth factor receptor Kit (Homo sapiens) (UniProt P10721); experiment: Inhibition of human KIT at 1 uM using polyEY as substrate in presence of 33P-ATP by ProQinase assay
[19] = molecular target: NUAK family SNF1-like kinase 1 (Homo sapiens) (UniProt O60285); experiment: Inhibition of human ARK5 at 1 uM using RBER-CHKtide as substrate in presence of 33P-ATP by ProQinase assay
[20] = molecular target: Phosphatidylinositol 3-kinase C2 domain-containing subunit gamma (Homo sapiens) (UniProt O75747); experiment: Inhibition of PI3KC2gamma (unknown origin) at 1 uM
[21] = molecular target: Mitogen-activated protein kinase kinase kinase kinase 3 (Homo sapiens) (UniProt Q8IVH8); experiment: Inhibition of recombinant human MAP4K3 (1 to 873 residues) expressed in baculovirus infected Sf21 cells assessed as remaining activity at 1 uM using MBP as substrate incubated for 30 mins in presence of [gamma-33P]ATP by filter binding method relative to control
[22] = molecular target: Mitogen-activated protein kinase 12 (Homo sapiens) (UniProt P53778); experiment: Inhibition of recombinant human N-terminal GST-tagged P38gamma (1 to 367 residues) expressed in Escherichia coli assessed as remaining activity at 1 uM using MBP as substrate incubated for 30 mins in presence of [gamma-33P]ATP by filter binding method relative to control
[23] = molecular target: Fibroblast growth factor receptor 1 (Homo sapiens) (UniProt P11362); experiment: Inhibition of recombinant human N-terminal His6-tagged FGFR1 (400 to 820 residues) expressed in baculovirus infected Sf21 cells assessed as remaining activity at 1 uM using Poly(Glu,Tyr) as substrate incubated for 30 mins in presence of [gamma-33P]ATP by filter binding method relative to control
[24] = molecular target: Serine/threonine-protein kinase BRSK1 (Homo sapiens) (UniProt Q8TDC3); experiment: Inhibition of human BRSK1 at 1 uM using RBER-CHKtide as substrate in presence of 33P-ATP by ProQinase assay
Chain of Serine/threonine-protein kinase BRSK1 (Homo sapiens) (Q8TDC3 whole entry): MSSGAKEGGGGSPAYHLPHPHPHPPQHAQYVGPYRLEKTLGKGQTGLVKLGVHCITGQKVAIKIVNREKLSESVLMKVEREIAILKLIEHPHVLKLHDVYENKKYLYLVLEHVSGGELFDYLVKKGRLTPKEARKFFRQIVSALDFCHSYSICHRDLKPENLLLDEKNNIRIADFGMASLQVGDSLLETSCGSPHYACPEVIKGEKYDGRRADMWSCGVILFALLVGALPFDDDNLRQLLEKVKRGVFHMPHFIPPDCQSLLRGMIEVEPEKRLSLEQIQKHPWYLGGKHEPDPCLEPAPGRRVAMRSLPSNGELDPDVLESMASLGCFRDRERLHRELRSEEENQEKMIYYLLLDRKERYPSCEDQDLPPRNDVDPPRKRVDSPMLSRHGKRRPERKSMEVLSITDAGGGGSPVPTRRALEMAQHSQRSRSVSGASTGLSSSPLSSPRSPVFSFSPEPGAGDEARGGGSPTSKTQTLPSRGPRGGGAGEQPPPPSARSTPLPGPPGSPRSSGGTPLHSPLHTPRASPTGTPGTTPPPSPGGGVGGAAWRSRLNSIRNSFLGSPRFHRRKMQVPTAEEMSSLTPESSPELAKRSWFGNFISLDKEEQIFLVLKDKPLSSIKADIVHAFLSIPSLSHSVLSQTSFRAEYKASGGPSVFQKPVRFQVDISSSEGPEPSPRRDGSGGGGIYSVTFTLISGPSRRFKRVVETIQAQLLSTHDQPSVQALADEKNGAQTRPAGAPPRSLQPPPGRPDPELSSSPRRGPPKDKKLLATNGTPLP

Chain of Mitogen-activated protein kinase 12 (Homo sapiens) (P53778 whole entry, the tested form may be a part): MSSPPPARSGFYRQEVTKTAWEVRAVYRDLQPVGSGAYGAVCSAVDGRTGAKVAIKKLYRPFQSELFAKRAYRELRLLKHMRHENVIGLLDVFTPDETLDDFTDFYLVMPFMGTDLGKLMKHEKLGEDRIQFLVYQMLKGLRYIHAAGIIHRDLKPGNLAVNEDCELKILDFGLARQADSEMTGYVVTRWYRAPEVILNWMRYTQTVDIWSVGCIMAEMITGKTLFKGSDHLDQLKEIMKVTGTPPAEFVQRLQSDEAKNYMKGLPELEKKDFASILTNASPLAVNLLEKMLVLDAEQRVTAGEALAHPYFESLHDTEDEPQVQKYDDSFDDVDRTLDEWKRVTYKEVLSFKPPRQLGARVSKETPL
Chain of Phosphatidylinositol 3-kinase C2 domain-containing subunit gamma (Homo sapiens) (O75747 whole entry, the tested form may be a part): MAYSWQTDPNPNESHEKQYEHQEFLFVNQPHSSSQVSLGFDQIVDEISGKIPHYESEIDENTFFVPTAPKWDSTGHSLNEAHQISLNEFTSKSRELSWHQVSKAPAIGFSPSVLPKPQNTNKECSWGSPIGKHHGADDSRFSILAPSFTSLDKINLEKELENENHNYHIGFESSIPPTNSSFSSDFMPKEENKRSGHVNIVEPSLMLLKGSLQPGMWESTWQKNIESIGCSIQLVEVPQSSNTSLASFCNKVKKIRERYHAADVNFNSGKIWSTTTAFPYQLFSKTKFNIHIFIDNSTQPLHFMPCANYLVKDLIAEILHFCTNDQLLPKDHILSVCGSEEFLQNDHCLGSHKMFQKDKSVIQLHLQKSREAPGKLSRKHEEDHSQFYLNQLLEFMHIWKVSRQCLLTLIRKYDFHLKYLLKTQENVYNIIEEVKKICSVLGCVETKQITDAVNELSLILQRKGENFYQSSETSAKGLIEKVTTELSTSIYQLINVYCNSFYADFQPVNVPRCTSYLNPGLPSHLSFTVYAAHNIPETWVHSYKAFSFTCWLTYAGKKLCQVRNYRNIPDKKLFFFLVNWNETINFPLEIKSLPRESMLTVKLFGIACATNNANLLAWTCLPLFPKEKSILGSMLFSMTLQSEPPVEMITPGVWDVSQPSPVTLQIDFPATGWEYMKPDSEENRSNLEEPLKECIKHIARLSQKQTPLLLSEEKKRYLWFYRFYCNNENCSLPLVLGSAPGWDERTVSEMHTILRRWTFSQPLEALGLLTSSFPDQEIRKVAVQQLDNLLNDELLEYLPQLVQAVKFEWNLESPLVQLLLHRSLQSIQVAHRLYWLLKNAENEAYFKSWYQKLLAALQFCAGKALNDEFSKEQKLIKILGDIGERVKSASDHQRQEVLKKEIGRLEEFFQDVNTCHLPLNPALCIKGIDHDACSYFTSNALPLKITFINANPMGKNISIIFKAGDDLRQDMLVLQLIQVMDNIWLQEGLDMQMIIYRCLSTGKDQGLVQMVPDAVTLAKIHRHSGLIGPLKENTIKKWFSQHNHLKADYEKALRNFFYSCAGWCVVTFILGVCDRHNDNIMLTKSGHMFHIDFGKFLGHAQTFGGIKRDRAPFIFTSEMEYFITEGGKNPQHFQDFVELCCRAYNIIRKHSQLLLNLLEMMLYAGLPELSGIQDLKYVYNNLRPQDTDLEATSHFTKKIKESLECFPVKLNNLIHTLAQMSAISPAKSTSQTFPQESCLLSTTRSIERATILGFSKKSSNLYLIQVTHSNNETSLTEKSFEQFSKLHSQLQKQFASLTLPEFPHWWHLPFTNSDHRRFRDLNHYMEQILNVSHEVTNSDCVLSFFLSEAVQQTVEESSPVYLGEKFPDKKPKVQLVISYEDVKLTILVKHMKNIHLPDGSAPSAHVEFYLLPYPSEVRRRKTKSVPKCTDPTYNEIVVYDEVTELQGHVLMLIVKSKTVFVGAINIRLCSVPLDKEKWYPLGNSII
Chain of Fibroblast growth factor receptor 1 (Homo sapiens) (P11362 22-822 limits assumed): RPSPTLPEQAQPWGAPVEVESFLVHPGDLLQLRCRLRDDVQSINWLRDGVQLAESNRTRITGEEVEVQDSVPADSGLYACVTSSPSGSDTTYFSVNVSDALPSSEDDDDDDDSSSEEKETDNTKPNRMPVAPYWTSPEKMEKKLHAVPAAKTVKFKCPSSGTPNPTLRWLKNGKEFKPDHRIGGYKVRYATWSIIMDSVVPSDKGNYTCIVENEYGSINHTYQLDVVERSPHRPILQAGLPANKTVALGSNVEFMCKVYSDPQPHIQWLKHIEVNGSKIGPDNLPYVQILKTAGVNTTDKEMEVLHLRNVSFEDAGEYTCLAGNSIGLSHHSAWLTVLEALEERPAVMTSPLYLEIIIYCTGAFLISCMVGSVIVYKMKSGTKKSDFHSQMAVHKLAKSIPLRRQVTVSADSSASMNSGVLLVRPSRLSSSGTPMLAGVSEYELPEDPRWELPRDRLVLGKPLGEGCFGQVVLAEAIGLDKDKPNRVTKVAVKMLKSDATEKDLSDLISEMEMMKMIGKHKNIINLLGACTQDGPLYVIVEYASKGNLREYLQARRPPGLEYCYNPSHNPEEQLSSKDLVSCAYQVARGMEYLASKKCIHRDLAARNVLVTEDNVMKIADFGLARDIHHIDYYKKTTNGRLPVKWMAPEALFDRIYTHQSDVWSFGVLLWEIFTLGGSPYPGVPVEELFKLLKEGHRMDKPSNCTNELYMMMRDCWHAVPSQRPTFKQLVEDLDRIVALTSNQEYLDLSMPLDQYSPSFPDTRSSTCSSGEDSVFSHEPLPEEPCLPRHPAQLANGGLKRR
Chain of Activin receptor type-1B (Homo sapiens) (P36896 whole entry, the tested form may be a part): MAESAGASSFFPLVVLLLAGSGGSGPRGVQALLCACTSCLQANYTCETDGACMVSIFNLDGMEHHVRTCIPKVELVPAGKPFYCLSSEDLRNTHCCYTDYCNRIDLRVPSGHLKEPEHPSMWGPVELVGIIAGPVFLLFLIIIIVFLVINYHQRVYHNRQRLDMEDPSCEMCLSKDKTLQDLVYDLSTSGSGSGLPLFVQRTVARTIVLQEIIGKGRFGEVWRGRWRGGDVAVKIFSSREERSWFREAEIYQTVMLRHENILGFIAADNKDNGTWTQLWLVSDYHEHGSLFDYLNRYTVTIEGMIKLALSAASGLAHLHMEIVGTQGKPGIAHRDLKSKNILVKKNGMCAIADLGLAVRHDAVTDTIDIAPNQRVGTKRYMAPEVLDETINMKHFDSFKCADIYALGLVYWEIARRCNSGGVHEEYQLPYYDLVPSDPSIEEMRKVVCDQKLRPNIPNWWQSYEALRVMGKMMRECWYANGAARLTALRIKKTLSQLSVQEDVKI
Chain of Serine/threonine-protein kinase Nek6 (Homo sapiens) (Q9HC98 whole entry, the tested form may be a part): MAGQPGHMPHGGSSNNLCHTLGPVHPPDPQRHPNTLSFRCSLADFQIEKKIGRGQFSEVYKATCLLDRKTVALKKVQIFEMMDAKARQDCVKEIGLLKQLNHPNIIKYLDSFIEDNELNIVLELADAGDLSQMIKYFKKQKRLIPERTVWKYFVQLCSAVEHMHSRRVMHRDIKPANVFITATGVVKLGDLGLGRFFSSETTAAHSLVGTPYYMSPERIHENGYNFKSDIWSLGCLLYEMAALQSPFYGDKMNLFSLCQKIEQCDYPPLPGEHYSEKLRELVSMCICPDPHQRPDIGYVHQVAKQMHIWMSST

SMILES: CC(C)(O)CNc1ncc(-c2ccnc(Nc3ccnc(Cl)c3)n2)c(CC2CC2)n1
- Activity [1]: 98%
- Activity [2]: 111%
- Activity [3]: 98%
- inhibition [4]: inactive
- inhibition [5]: inactive
- Activity [6]: 93%
- inhibition [7]: inactive
- IC50 [8]: > 10 µM
- Activity [9]: 112%
- inhibition [10]: inactive
- inhibition [11]: inactive
- inhibition [12]: inactive
- Activity [13]: 113%
- Activity [14]: 87%
- inhibition [15]: inactive
- Activity [16]: 122%
- Activity [17]: 106%
- inhibition [18]: inactive
- inhibition [19]: inactive
- inhibition [20]: inactive
- Activity [21]: 117%
- Activity [22]: 133%
- Activity [23]: 95%
- inhibition [24]: inactive
